Assay [1] deals with T1, Serine/threonine-protein kinase tousled-like 1 (Homo sapiens) (UniProt Q9UKI8).
T1 sequence (whole entry): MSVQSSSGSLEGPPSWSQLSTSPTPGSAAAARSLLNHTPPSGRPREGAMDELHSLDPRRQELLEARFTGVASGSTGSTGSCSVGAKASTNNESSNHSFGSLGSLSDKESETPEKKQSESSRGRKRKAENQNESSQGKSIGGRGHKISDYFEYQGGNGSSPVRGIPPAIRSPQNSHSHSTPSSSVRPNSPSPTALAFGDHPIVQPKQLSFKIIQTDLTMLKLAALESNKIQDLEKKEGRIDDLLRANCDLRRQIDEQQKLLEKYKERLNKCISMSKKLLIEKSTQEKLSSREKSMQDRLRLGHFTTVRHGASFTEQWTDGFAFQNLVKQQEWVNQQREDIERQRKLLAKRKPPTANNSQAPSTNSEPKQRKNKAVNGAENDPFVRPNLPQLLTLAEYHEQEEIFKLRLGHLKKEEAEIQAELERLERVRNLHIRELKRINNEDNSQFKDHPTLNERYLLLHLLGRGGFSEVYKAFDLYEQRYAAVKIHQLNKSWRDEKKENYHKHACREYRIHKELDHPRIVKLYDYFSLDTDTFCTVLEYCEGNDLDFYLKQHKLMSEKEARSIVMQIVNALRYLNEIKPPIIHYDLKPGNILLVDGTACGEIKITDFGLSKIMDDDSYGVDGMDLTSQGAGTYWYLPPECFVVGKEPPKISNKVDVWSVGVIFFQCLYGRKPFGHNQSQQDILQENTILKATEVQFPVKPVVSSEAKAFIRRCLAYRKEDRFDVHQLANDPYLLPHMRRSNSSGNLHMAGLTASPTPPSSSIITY
The assay is described as follows: Inhibition of TLK1 Lys2 labeling site in human Huh-7 cell lysate at 1 uM by KiNativ Profiling analysis relative to control. It counts as subcellular.

Assay [2] addresses T2, Serine/threonine-protein kinase TBK1 (Homo sapiens) (UniProt Q9UHD2).
T2 sequence (whole entry): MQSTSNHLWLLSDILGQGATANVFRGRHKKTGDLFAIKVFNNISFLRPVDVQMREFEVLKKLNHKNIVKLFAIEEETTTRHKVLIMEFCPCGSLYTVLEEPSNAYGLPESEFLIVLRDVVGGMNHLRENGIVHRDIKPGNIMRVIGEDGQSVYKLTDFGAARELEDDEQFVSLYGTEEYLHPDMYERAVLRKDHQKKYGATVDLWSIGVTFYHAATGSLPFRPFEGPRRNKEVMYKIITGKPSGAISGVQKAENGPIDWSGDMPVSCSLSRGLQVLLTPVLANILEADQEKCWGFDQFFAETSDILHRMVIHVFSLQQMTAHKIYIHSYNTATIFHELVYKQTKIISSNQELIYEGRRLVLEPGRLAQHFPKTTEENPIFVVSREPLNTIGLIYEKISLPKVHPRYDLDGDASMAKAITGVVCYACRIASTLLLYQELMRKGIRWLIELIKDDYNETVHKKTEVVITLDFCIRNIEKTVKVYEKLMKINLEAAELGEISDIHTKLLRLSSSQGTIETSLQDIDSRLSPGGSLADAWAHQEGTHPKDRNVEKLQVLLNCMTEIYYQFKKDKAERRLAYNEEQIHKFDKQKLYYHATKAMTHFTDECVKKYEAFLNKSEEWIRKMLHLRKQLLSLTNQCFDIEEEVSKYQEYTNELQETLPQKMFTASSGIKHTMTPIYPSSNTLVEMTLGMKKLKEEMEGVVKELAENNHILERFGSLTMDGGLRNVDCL
Briefly: Inhibition of TBK1 Lys2 labeling site in human Huh-7 cells at 1 uM by KiNativ Profiling analysis relative to control. It counts as cell-based.

In assay [3] the target is Phosphatidylinositol 4,5-bisphosphate 3-kinase catalytic subunit alpha isoform (Homo sapiens) (UniProt P42336). Briefly: Inhibition of PIK3CA ATP labeling site in human A-375 cells at 5 uM by KiNativ Profiling analysis relative to control. It counts as cell-based.
The test system of assay [4] is Epidermal growth factor receptor (Homo sapiens), P00533 [T790M]. The assay is described as follows: Inhibition of EGFR T790M mutant (unknown origin) at 1 uM by Ambit Kinomescan binding assay relative to control.
Assay [5] concerns the target T3, Mitogen-activated protein kinase kinase kinase kinase 2 (Homo sapiens) (UniProt Q12851).
T3 sequence (whole entry): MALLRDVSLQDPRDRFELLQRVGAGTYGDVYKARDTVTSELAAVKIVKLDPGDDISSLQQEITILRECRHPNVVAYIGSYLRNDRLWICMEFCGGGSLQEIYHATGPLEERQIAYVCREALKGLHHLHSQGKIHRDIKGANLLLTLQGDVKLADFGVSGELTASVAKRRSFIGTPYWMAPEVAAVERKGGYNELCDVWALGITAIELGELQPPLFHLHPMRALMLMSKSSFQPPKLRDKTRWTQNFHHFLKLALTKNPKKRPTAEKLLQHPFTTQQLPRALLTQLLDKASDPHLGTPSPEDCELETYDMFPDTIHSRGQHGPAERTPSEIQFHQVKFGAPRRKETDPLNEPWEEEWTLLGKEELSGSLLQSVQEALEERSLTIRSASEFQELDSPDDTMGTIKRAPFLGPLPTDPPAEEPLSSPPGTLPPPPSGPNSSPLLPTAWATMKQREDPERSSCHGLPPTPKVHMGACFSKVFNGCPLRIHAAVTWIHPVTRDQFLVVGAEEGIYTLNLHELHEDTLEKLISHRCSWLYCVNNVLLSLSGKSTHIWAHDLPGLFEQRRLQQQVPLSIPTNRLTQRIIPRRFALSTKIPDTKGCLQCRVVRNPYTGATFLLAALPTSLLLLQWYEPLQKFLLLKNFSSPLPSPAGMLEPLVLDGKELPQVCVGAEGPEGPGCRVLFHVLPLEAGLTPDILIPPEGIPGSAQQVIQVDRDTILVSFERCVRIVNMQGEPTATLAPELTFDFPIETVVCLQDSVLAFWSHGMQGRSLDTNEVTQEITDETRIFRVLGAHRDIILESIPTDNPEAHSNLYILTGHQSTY
Briefly: Inhibition of MAP4K2 Lys1 labeling site in human A-375 cells at 5 uM by KiNativ Profiling analysis relative to control. It counts as cell-based.

For assay [6], the target named is Bone morphogenetic protein receptor type-2 (Homo sapiens) (UniProt Q13873). The assay is described as follows: Inhibition of BMPR2 (unknown origin) at 10 uM by Ambit Kinomescan binding assay.
Assay [7] deals with Tyrosine-protein kinase Yes (Homo sapiens) (UniProt P07947). Briefly: Inhibition of YES (unknown origin) at 10 uM by Ambit Kinomescan binding assay relative to control; values are per cent of control.
Assay [8] deals with MEF. Briefly: Inhibition of IL-1alpha induced p38 phosphorylation level in mouse MEF cells preincubated for 1 hr followed by IL-1 alpha stimulation and measured after 30 mins by Western blot analysis. It counts as functional, cell-based. Conditions: dose 0.01-10 µM. (In general: In western blotting, separated proteins are transferred to a membrane and probed.)
Assay [9] has as its target Insulin-like growth factor 1 receptor (Homo sapiens) (UniProt P08069). The assay is described as follows: Inhibition of IGF1R (unknown origin) at 10 uM by Ambit Kinomescan binding assay.
Assay [10] is described as follows: Inhibition of MARK2/3 K2 labeling site in human Huh-7 cells at 1 uM by KiNativ Profiling analysis relative to control. The note with it: condition cancer.

Each structure is given as a SMILES string. The source made the active and inactive calls. The calls are words filed in the database; no cut-off is given here. Where only a bound is given, the exact number is not on record here.

Sequence of Phosphatidylinositol 4,5-bisphosphate 3-kinase catalytic subunit alpha isoform (Homo sapiens) (P42336 whole entry, canonical isoform): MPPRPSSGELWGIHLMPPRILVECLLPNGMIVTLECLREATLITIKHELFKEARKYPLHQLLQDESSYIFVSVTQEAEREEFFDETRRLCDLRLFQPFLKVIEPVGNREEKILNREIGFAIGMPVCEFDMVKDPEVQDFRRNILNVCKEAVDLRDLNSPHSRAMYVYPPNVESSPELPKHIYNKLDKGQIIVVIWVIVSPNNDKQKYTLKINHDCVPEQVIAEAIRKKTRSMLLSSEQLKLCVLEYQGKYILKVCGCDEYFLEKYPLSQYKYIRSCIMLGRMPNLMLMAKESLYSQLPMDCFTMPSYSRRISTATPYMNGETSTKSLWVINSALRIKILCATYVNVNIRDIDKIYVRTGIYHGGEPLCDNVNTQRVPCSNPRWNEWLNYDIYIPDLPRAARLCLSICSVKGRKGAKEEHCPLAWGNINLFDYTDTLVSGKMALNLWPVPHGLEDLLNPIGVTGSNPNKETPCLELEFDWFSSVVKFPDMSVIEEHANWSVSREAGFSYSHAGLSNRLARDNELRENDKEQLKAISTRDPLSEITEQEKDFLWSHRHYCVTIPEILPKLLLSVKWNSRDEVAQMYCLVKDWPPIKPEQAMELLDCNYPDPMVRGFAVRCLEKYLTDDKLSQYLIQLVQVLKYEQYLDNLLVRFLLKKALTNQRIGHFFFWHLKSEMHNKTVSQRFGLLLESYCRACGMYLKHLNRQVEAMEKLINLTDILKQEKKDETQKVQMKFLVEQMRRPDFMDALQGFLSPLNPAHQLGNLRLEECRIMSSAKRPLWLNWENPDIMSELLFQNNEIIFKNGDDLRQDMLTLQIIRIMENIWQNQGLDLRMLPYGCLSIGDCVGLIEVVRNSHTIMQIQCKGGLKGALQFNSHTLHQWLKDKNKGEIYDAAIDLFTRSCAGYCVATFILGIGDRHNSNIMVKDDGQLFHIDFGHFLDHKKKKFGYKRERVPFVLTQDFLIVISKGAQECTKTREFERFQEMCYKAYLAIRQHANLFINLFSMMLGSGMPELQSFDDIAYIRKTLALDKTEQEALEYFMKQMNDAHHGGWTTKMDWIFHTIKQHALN
Sequence of Epidermal growth factor receptor (Homo sapiens), P00533 [T790M] (P00533 whole entry T790M): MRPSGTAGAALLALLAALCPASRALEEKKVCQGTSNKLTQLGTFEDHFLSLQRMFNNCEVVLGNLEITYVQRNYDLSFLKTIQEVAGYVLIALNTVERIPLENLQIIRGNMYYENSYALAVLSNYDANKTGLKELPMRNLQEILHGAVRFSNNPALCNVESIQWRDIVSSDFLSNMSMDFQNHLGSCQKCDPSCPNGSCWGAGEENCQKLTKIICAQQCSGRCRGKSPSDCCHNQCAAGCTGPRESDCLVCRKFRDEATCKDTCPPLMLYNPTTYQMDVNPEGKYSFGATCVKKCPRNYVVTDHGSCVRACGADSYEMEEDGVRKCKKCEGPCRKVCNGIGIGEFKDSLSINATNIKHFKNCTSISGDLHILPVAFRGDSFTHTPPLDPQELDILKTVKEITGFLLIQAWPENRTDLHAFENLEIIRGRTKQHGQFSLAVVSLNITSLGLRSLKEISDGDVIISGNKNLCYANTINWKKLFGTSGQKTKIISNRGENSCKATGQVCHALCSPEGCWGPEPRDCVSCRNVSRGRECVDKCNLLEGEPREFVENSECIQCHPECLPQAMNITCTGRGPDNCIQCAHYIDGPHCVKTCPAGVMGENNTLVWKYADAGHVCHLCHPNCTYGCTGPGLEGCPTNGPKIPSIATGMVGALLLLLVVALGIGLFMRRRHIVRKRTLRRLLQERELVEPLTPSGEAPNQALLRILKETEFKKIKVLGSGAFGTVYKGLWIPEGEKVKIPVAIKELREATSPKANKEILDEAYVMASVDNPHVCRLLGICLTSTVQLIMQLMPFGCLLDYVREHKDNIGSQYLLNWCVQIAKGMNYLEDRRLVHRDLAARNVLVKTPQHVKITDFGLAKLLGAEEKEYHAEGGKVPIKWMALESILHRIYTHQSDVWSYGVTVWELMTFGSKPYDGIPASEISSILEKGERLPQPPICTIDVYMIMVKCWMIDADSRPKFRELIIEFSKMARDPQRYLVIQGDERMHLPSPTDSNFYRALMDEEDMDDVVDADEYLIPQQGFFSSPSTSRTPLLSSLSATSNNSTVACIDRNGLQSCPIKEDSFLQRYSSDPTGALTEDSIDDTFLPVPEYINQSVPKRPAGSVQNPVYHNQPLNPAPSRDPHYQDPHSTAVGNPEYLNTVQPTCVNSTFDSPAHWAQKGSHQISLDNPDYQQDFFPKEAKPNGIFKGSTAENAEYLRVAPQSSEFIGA
Sequence of Insulin-like growth factor 1 receptor (Homo sapiens) (P08069 31-736 limits assumed): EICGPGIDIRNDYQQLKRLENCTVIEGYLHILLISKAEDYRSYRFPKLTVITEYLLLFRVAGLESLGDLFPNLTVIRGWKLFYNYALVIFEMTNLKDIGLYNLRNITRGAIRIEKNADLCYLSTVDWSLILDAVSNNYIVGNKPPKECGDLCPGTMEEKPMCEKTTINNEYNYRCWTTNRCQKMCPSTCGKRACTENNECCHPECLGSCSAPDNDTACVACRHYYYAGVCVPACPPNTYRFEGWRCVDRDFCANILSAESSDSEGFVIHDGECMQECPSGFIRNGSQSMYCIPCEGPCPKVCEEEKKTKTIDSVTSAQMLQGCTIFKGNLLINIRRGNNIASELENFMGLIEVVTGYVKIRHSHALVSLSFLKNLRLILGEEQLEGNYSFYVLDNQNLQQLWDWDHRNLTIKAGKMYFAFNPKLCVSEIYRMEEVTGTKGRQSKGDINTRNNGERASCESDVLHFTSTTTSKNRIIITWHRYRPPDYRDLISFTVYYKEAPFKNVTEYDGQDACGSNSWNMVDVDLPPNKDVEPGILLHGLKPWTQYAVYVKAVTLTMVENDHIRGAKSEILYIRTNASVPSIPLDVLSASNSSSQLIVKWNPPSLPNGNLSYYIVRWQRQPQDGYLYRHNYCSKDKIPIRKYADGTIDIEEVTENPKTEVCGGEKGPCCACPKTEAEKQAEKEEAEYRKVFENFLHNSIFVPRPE
Sequence of Insulin-like growth factor 1 receptor (Homo sapiens) (P08069 741-1367 limits assumed): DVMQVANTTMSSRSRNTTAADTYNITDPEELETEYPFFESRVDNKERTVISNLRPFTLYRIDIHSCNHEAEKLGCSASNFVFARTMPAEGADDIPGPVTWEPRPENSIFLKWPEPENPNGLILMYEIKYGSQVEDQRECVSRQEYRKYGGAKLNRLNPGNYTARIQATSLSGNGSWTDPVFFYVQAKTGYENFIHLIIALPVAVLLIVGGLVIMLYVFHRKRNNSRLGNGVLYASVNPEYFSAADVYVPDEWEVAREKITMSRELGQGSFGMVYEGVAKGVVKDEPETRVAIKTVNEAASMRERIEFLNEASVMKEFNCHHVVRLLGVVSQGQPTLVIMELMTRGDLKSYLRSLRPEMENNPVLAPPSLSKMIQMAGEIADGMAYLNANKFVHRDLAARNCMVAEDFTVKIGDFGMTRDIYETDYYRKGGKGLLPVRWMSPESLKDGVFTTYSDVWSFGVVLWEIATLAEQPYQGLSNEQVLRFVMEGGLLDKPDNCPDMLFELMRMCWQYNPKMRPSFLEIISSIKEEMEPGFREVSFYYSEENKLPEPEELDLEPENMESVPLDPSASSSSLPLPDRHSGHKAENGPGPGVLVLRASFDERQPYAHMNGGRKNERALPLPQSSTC
Sequence of Bone morphogenetic protein receptor type-2 (Homo sapiens) (Q13873 whole entry): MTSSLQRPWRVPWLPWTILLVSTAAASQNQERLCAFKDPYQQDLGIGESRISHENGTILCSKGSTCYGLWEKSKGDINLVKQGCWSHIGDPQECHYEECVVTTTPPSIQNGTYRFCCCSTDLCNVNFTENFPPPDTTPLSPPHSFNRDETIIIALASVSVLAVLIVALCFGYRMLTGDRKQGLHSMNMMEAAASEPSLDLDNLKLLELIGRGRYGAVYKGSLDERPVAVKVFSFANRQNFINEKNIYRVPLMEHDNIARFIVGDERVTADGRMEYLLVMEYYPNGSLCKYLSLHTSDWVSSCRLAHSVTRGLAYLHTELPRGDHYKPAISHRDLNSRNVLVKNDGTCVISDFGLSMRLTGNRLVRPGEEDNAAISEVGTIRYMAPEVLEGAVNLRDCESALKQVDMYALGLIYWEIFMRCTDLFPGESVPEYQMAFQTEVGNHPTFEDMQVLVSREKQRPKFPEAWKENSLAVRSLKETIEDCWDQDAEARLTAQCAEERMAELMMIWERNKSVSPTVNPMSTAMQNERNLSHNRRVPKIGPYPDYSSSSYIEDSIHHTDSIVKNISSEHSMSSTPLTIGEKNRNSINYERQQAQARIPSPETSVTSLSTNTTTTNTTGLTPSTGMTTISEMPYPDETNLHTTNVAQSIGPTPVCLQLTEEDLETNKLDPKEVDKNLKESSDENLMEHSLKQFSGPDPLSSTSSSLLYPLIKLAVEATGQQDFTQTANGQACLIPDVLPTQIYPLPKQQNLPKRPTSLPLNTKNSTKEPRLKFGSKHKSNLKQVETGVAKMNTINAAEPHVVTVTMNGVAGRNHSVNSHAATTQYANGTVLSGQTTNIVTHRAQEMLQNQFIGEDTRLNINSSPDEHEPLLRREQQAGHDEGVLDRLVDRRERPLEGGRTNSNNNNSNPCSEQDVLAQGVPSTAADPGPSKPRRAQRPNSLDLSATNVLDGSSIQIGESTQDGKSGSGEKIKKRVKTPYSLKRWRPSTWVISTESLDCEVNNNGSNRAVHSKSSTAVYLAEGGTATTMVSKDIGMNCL

The term inhibition denotes the relative decrease from the control value, in per cent. With `CNc1cc(Oc2cc(C(=O)Nc3cc(N4CCN(C)CC4)cc(C(F)(F)F)c3)ccc2C)ncn1`, the inhibition in [1] worked out at 1%; in [2] it was 17.7%.
For `CCN1CCN(Cc2ccc(NC(=O)c3ccc(C)c(/C=C/c4cnc5[nH]ccc5c4OC)c3)cc2C(F)(F)F)CC1`, the inhibition amounted to 56.9% in assay [3] and 68% in [4].
As usually defined, the residual activity is the activity still measured, relative to the control. Read a low residual activity as a large loss of activity. For the molecule `CCN1CCN(Cc2ccc(NC(=O)c3ccc(C)c(Oc4ccnc5[nH]ccc45)c3)cc2C(F)(F)F)CC1`, the values for the inhibition in assay [5] and in assay [8] were over 99.5% and “Dose-Dependent Effect”, respectively. Besides, the inhibition entry in assay [6] and in assay [9] was “inactive” in each case. Also, the residual activity in [7] came out at 1.6%. The inhibition at 1 µM in [10] is -5.3%.
